According to PubChem BioAssay AID256 (DTP/NCI, 2004):
Where “and” joins values, the source holds several entries; their conditions need not be identical. Identical values can stand only once. Toxic doses and inconclusive results are not listed. Rule for the calls: active = survival T/C of 150% or more; inactive = T/C below 125% in these data.

Test system: CD2F1 mice, L1210 leukemia ip, survival T/C
Experiment: NCI In Vivo Anticancer Drug Screen. Data for tumor model L1210 Leukemia (intraperitoneal) in CD2F1 (CDF1) mice
Conditions: higher = longer survival
Summary of the method: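 Read-out first: treated-group measurement over vehicle-control measurement, expressed as a ratio. Animals bore a transplanted tumor line and were dosed with compound or vehicle.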

[1] = endpoint: mean survival time, dose: 50.0 mg/kg/injection, schedule: Q01DX009 (ip), vehicle: saline with Tween-80
[2] = endpoint: mean survival time, dose: 100.0 mg/kg/injection, schedule: Q01DX009 (ip), vehicle: saline with Tween-80
[3] = endpoint: mean survival time, dose: 200.0 mg/kg/injection, schedule: Q01DX009 (ip), vehicle: saline with Tween-80
[4] = endpoint: mean survival time, dose: 100.0 mg/kg/injection, schedule: Q04DX003 (ip), vehicle: saline with Tween-80
[5] = endpoint: mean survival time, dose: 200.0 mg/kg/injection, schedule: Q04DX003 (ip), vehicle: saline with Tween-80
[6] = endpoint: mean survival time, dose: 400.0 mg/kg/injection, schedule: Q04DX003 (ip), vehicle: saline with Tween-80
[7] = endpoint: mean survival time, dose: 100.0 mg/kg/injection, schedule: Q04DX002 (ip), vehicle: saline
[8] = endpoint: mean survival time, dose: 200.0 mg/kg/injection, schedule: Q04DX002 (ip), vehicle: saline
[9] = endpoint: mean survival time, dose: 6.25 mg/kg/injection, schedule: Q01DX009 (ip), vehicle: saline with Tween-80
[10] = endpoint: mean survival time, dose: 12.5 mg/kg/injection, schedule: Q01DX009 (ip), vehicle: saline with Tween-80
[11] = endpoint: mean survival time, dose: 25.0 mg/kg/injection, schedule: Q01DX009 (ip), vehicle: saline with Tween-80

Measured: T/C

C=CCc1cccc(OC)c1OCCN(CC)CC
inactive: endpoint: mean survival time, dose: 5.0 mg/kg/injection, schedule: Q01DX009 (ip), vehicle: saline with Tween-80 102 % of control | endpoint: mean survival time, dose: 5.0 mg/kg/injection, schedule: Q04DX003 (ip), vehicle: saline with Tween-80 94 % of control | endpoint: mean survival time, dose: 10.0 mg/kg/injection, schedule: Q01DX009 (ip), vehicle: saline with Tween-80 96 % of control | endpoint: mean survival time, dose: 10.0 mg/kg/injection, schedule: Q04DX003 (ip), vehicle: saline with Tween-80 96 % of control | endpoint: mean survival time, dose: 20.0 mg/kg/injection, schedule: Q01DX009 (ip), vehicle: saline with Tween-80 91 % of control | endpoint: mean survival time, dose: 20.0 mg/kg/injection, schedule: Q04DX003 (ip), vehicle: saline with Tween-80 96 % of control

Cn1cnc2ccc(Cl)cc21
inactive: [1] 102 % of control | [2] 98 % of control | [3] 95 % of control

Nc1ncnc2c1nc(NCc1ccccc1)n2C1OC(CO)C(O)C1O (stereo not drawn)
inactive: endpoint: mean survival time, dose: 12.5 mg/kg/injection, schedule: Q01DX005 (ip), vehicle: distilled water + Tween-80 93 % of control | endpoint: mean survival time, dose: 25.0 mg/kg/injection, schedule: Q01DX005 (ip), vehicle: distilled water + Tween-80 100 % of control and 95 % of control | endpoint: mean survival time, dose: 50.0 mg/kg/injection, schedule: Q01DX005 (ip), vehicle: distilled water + Tween-80 92 % of control and 101 % of control | endpoint: mean survival time, dose: 100.0 mg/kg/injection, schedule: Q01DX005 (ip), vehicle: distilled water + Tween-80 99 % of control and 93 % of control | endpoint: mean survival time, dose: 200.0 mg/kg/injection, schedule: Q01DX005 (ip), vehicle: distilled water + Tween-80 99 % of control and 100 % of control | endpoint: mean survival time, dose: 400.0 mg/kg/injection, schedule: Q01DX005 (ip), vehicle: distilled water + Tween-80 89 % of control

CC(N)CC(=O)NO (stereo not drawn)
inactive: endpoint: mean survival time, dose: 100.0 mg/kg/injection, schedule: Q01DX001 (ip), vehicle: saline 104 % of control | endpoint: mean survival time, dose: 200.0 mg/kg/injection, schedule: Q01DX001 (ip), vehicle: saline 104 % of control | endpoint: mean survival time, dose: 400.0 mg/kg/injection, schedule: Q01DX001 (ip), vehicle: saline 108 % of control

CCCCCCCCCCCC(CCCCCCCCCC)CCCCCCCCCC
inactive: endpoint: mean survival time, dose: 100.0 mg/kg/injection, schedule: Q01DX001 (ip), vehicle: saline sonified 101 % of control | endpoint: mean survival time, dose: 200.0 mg/kg/injection, schedule: Q01DX001 (ip), vehicle: saline sonified 104 % of control | endpoint: mean survival time, dose: 400.0 mg/kg/injection, schedule: Q01DX001 (ip), vehicle: saline sonified 108 % of control

CCCCC#CC(C)C
inactive: [4] 98 % of control | [5] 102 % of control | [6] 102 % of control

C=CC[N+]12CC=C(CO)C1C(O)CC2 (stereo not drawn)
inactive: [7] 101 % of control | [8] 104 % of control | endpoint: mean survival time, dose: 400.0 mg/kg/injection, schedule: Q04DX002 (ip), vehicle: saline 97 % of control

C1CCC(C2CCCC[N-]2)[N-]C1.CC(C)CC([NH-])C(=O)O.[Cl][Pt] (stereo not drawn)
inactive: endpoint: median survival time, dose: 10.0 mg/kg/injection, schedule: Q04DX003 (ip), vehicle: saline 96 % of control | endpoint: median survival time, dose: 20.0 mg/kg/injection, schedule: Q04DX003 (ip), vehicle: saline 100 % of control | endpoint: median survival time, dose: 40.0 mg/kg/injection, schedule: Q04DX003 (ip), vehicle: saline 97 % of control | endpoint: median survival time, dose: 80.0 mg/kg/injection, schedule: Q04DX003 (ip), vehicle: saline 101 % of control and 104 % of control | endpoint: median survival time, dose: 160.0 mg/kg/injection, schedule: Q04DX003 (ip), vehicle: saline 104 % of control | endpoint: median survival time, dose: 320.0 mg/kg/injection, schedule: Q04DX003 (ip), vehicle: saline 93 % of control

O=C1NC(=O)C2CCCCC12 (stereo not drawn)
inactive: [2] 100 % of control | [4] 97 % of control | [3] 95 % of control | [5] 101 % of control | endpoint: mean survival time, dose: 400.0 mg/kg/injection, schedule: Q01DX009 (ip), vehicle: saline with Tween-80 95 % of control | [6] 95 % of control

CCCCCCCCCCCCN=C(N)C(N)=NCCCCCCCCCCCC
inactive: endpoint: mean survival time, dose: 25.0 mg/kg/injection, schedule: Q04DX002 (ip), vehicle: other 93 % of control | endpoint: mean survival time, dose: 50.0 mg/kg/injection, schedule: Q04DX002 (ip), vehicle: other 93 % of control | endpoint: mean survival time, dose: 100.0 mg/kg/injection, schedule: Q04DX002 (ip), vehicle: other 116 % of control

N#CCCc1c(O)ccc2ccccc12
inactive: [4] 86 % of control | [5] 92 % of control | [6] 86 % of control

N#Cc1cn(C2OC(CO)C(O)C2O)c2ncnc(NC(=O)c3ccccc3)c12 (stereo not drawn)
inactive: endpoint: mean survival time, dose: 0.78 mg/kg/injection, schedule: Q01DX001 (ip), vehicle: suspension in saline 95 % of control | endpoint: mean survival time, dose: 1.56 mg/kg/injection, schedule: Q01DX001 (ip), vehicle: suspension in saline 106 % of control | endpoint: mean survival time, dose: 3.13 mg/kg/injection, schedule: Q01DX001 (ip), vehicle: suspension in saline 110 % of control | endpoint: mean survival time, dose: 6.25 mg/kg/injection, schedule: Q01DX001 (ip), vehicle: suspension in saline 108 % of control | endpoint: mean survival time, dose: 12.5 mg/kg/injection, schedule: Q01DX001 (ip), vehicle: suspension in saline 111 % of control

COC1=CC=C2[C@@H]3Cc4ccc(OC)c5c4[C@]2(CCN3CCO)C1O5 (stereo partly drawn)
inactive: endpoint: mean survival time, dose: 25.0 mg/kg/injection, schedule: Q04DX003 (ip), vehicle: DMSO 94 % of control | endpoint: mean survival time, dose: 50.0 mg/kg/injection, schedule: Q04DX003 (ip), vehicle: DMSO 96 % of control | endpoint: mean survival time, dose: 100.0 mg/kg/injection, schedule: Q04DX003 (ip), vehicle: DMSO 94 % of control | endpoint: mean survival time, dose: 200.0 mg/kg/injection, schedule: Q04DX003 (ip), vehicle: DMSO 91 % of control | endpoint: mean survival time, dose: 400.0 mg/kg/injection, schedule: Q04DX003 (ip), vehicle: DMSO 105 % of control

CCOC(=N)CNC(=O)c1ccccc1
inactive: endpoint: mean survival time, dose: 100.0 mg/kg/injection, schedule: Q04DX002 (ip), vehicle: saline with Tween-80 105 % of control | endpoint: mean survival time, dose: 200.0 mg/kg/injection, schedule: Q04DX002 (ip), vehicle: saline with Tween-80 98 % of control | endpoint: mean survival time, dose: 400.0 mg/kg/injection, schedule: Q04DX002 (ip), vehicle: saline with Tween-80 98 % of control

COC(=O)CCCCC(=O)OC
inactive: [4] 96 % of control | [5] 102 % of control | [6] 102 % of control

ClC1=C(Cl)C(Cl)=C(Cl)C1=Cc1ccccc1
inactive: endpoint: mean survival time, dose: 3.12 mg/kg/injection, schedule: Q01DX009 (ip), vehicle: saline with Tween-80 101 % of control | [9] 104 % of control | [10] 105 % of control | [11] 106 % of control | [1] 105 % of control

C/C=C/C(Cc1ccc2ccccc2c1)(C(=O)OCC)C(=O)OCC
inactive: endpoint: mean survival time, dose: 50.0 mg/kg/injection, schedule: Q01DX009 (ip), vehicle: Klucel (hydroxypropylcellulose) (HPC) 91 % of control | endpoint: mean survival time, dose: 100.0 mg/kg/injection, schedule: Q01DX009 (ip), vehicle: Klucel (hydroxypropylcellulose) (HPC) 88 % of control | endpoint: mean survival time, dose: 200.0 mg/kg/injection, schedule: Q01DX009 (ip), vehicle: Klucel (hydroxypropylcellulose) (HPC) 94 % of control

O=C(CC(O)(C(F)(F)F)C(F)(F)F)CC(O)(C(F)(F)F)C(F)(F)F
inactive: endpoint: mean survival time, dose: 5.0 mg/kg/injection, schedule: Q01DX001 (ip), vehicle: saline with Tween-80 94 % of control | endpoint: mean survival time, dose: 5.0 mg/kg/injection, schedule: Q04DX003 (ip), vehicle: saline 102 % of control | endpoint: mean survival time, dose: 10.0 mg/kg/injection, schedule: Q04DX003 (ip), vehicle: saline 92 % of control

O=C1OC(=O)c2ccc([N+](=O)[O-])c3c([N+](=O)[O-])ccc1c23
inactive: [4] 92 % of control | [5] 95 % of control | [6] 90 % of control

CC1(C)CC1(Br)Br
inactive: [9] 94 % of control and 112 % of control | [10] 94 % of control and 106 % of control | [11] 102 % of control and 112 % of control | [1] 100 % of control and 110 % of control | [2] 93 % of control and 106 % of control | [3] 97 % of control and 100 % of control

Cc1cc(NS(=O)(=O)c2ccc(N=Nc3cc(N=Nc4ccc(S(=O)(=O)Nc5cc(C)nc(C)n5)cc4)c4c(NC(=O)C(Cl)Cl)cccc4c3OC(=O)C(Cl)Cl)cc2)nc(C)n1 (tested in a mixture with another compound)
inactive: endpoint: median survival time, dose: 12.5 mg/kg/injection, schedule: Q01DX009 (ip), vehicle: suspension in saline 103 % of control | endpoint: median survival time, dose: 25.0 mg/kg/injection, schedule: Q01DX009 (ip), vehicle: suspension in saline 103 % of control | endpoint: median survival time, dose: 50.0 mg/kg/injection, schedule: Q01DX009 (ip), vehicle: suspension in saline 98 % of control | endpoint: median survival time, dose: 100.0 mg/kg/injection, schedule: Q01DX009 (ip), vehicle: suspension in saline 104 % of control | endpoint: median survival time, dose: 200.0 mg/kg/injection, schedule: Q01DX009 (ip), vehicle: suspension in saline 104 % of control

Nc1nc(=O)[nH]c(N)c1N
inactive: [7] 97 % of control | [8] 117 % of control
